# According to patent publication EP4603105A1, “PHARMACEUTICAL COMPOSITION CONTAINING CYCLIC COMPOUND HAVING SELECTIVE KRAS INHIBITORY EFFECT AGAINST HRAS AND NRAS” (CHUGAI SEIYAKU KABUSHIKI KAISHA, priority 2022, dated 2024):
# Where a SMILES comes first, the peptide text is derived from it. Bridges are numbered along the chain shown (N, C = ends). [ ]: non-standard residue; d: D form. The star is where a group is joined. hPhe(3-Cl-4-CF3) = N[C@@H](CCc1ccc(C(F)(F)F)c(Cl)c1)C(=O)O; NEtPhe(4-CF3) = CCN[C@@H](Cc1ccc(C(F)(F)F)cc1)C(=O)O; NMeGly(cPent) = CN[C@H](C(=O)O)C1CCCC1; NMeD = CN[C@@H](CC(=O)O)C(=O)O; NMeL = CN[C@@H](CC(C)C)C(=O)O; Morpholide = C1CN(*)CCO1; Aib = CC(C)(N)C(=O)O; Sar = CNCC(=O)O
# Experiments:
# [1] = molecular target: GDP-bound KRAS wild-type protein (Homo sapiens, UniProt P01116); assay: Binding to KRAS by surface plasmon resonance (SPR), dissociation constant KD
# Chain of GDP-bound KRAS wild-type protein (P01116 1-188 isoform P01116-2): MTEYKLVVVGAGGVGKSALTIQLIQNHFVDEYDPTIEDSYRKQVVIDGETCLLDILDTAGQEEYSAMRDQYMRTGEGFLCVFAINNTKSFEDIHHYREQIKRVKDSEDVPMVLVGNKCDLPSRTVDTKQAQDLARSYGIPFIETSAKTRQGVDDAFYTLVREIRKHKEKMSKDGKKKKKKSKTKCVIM
# Procedure: Surface plasmon resonance was used to analyze the binding affinity of compounds for KRAS, NRAS, and HRAS. The apparatus used was Biacore 8K, 8K+, or T200 (GE Healthcare), and the running buffer used was HBS (10 mM HEPES-NaOH, 150 mM NaCl, pH 7.4) containing 1 mM DTT, 10 mM MgCl2, 0.01% Tween 20, 10 µM GDP, and 4% DMSO.
# Biotinylated Avi-tag fusion KRAS, NRAS, and HRAS proteins were expressed in E. coli BL21 (DE3) strains, and after cells were homogenized, they were purified using Streptavidin Mutein Matrix and Superdex 75. After purification, GDP-loaded KRAS, NRAS, and HRAS proteins were immobilized on the surface of Sensor Chip CAP (Cytiva) coated with Biotin CAPture Reagent in an immobilization amount of about 100 to 300 RU. Binding of each compound was evaluated by the Single Cycle Kinetics method, and a running buffer or a compound solution was added to the RAS protein non-immobilized surface and the immobilized surface to obtain a binding response. The flow rate was set to 100 µL/min, and in the compound-adding cycle, compound solutions having different concentrations were intermittently added for 75 seconds each, starting from a low concentration. […] In the blank cycle, a running buffer was intermittently added and not the compound solution. The Biotin CAPture Reagent and RAS proteins were immobilized for each cycle, and at the end of each cycle, the sensor chip was regenerated by the regeneration solution appended to the Biotin CAPture Kit (Cytiva). Measurement was carried out at 30°C.
# The resulting sensorgram was subjected to curve fitting based on a 1:1 binding model on Biacore Insight Evaluation Software or T200 Evaluation Software, and thereby the dissociation constant KD of each compound with respect to KRAS, NRAS, and HRAS was determined. […] Blank indicates a compound from which the KD value with respect to NRAS or HRAS was not obtained.
# [2] = molecular target: GDP-bound NRAS wild-type protein (Homo sapiens, UniProt P01111); assay: Binding to NRAS by surface plasmon resonance (SPR), KD and KD ratio to KRAS
# Chain of GDP-bound NRAS wild-type protein (P01111 whole entry): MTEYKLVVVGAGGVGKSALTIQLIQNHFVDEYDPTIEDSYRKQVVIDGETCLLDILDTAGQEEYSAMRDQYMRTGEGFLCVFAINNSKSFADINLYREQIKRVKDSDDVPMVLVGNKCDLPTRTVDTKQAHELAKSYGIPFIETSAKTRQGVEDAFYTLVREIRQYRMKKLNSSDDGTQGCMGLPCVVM
# How it was run: (§1)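 SPR, 30°C: Avi-biotin RAS·GDP captured via Biotin CAPture (~100–300 RU); running buffer HBS pH 7.4, 1 mM DTT, 10 mM MgCl2, 0.01% Tween 20, 10 µM GDP, 4% DMSO. Single-cycle kinetics, 100 µL/min, 75 s injections; 1:1 model → KD.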
# HRAS wild-type protein = HRAS wild-type protein (Homo sapiens, UniProt P01112); assay: Binding to HRAS by surface plasmon resonance (SPR), KD and KD ratio to KRAS
# Chain of HRAS wild-type protein (P01112 whole entry): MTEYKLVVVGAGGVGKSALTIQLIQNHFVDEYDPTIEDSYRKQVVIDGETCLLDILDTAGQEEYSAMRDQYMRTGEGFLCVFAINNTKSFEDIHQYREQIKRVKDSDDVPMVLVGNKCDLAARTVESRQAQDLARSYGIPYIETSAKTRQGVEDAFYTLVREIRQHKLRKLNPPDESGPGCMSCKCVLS
# How it was run: as §1
# [3] = tested on: human lung cancer strain NCI-H441; format: cell-based
# How it was run: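 Proliferation was scored by […] measured after the reagent was added to cultures kept at 37°C in 5% carbon dioxide.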
# [4] = ratio of KD for GDP-bound NRAS wild-type protein to KD for KRAS
# [5] = ratio of KD for HRAS wild-type protein to KD for KRAS
# [6] = Single Cycle Kinetics, 1:1 binding model
SMILES,Kd ([1]; Single Cycle Kinetics),IC50 [3],Kd ([1]; 1:1 binding model),"Kd [1, 6]","NRAS /KRAS [2, 4]",HRAS /KRAS (HRAS wild-type protein; [5]),NRAS /KRAS ([2]; ratio of KD value for GDP-bound NRAS wild-type protein to KD value for KRAS (SPR)),HRAS /KRAS (HRAS wild-type protein; ratio of KD value for HRAS wild-type protein to KD value for KRAS (SPR)),NRAS /KRAS ([2]; ratio of the KD value with respect to GDP-bound NRAS wild-type protein to the KD value with respect to KRAS),HRAS /KRAS (HRAS wild-type protein; ratio of the KD value with respect to HRAS wild-type protein to the KD value with respect to KRAS)
CCC(CC)[C@H]1C(=O)N(C)[C@H](C(=O)N(C)C)CC(=O)N(C)[C@@H](COC)C(=O)N[C@@H]([C@@H](C)CC)C(=O)N(C)CC(=O)N(C)[C@H]2C/C=C\CCN(C2=O)[C@@H](Cc2ccc(C)cc2)C(=O)N(C)CC(=O)N[C@@H](CCc2ccc(C(F)(F)F)c(OC)c2)C(=O)N2CCCCC[C@H]2C(=O)NC2(CC(C)(C)C2)C(=O)N1C [PP2970],–,23 nM,0.46 nM,–,A (a compound having 10 or more and less than 20 is denoted as A),A (a compound having 10 or more and less than 20 is denoted as A),–,–,–,–
CCC(CC)[C@H]1C(=O)N(C)[C@H](C(=O)N(C)C)CC(=O)N(C)[C@@H](COC)C(=O)N[C@@H]([C@@H](C)CC)C(=O)N(C)CC(=O)N(C)[C@H]2C/C=C\CCN(C2=O)[C@@H](Cc2ccc(C)cc2)C(=O)N(C)CC(=O)N[C@@H](CCc2ccc(C(F)(F)F)c(Cl)c2)C(=O)N2CCCC[C@H]2C(=O)NC2(CC(C)(C)C2)C(=O)N1C [PP2931],–,65.5 nM,1.9 nM,–,A (a compound having 10 or more and less than 20 is denoted as A),A (a compound having 10 or more and less than 20 is denoted as A),–,–,–,–
CC[C@H](C)[C@@H]1NC(=O)[C@H](CC(C)C)N(C)C(=O)C[C@@H](C(=O)N(CC)CC)N(C)C(=O)[C@H](C2CCCC2)N(C)C(=O)C2(CCC2)NC(=O)[C@@H]2C[C@@H](C)CN2C(=O)[C@H](CCc2ccc(C(F)(F)F)c(OC)c2)NC(=O)CN(C)C(=O)[C@H](Cc2ccc(C)cc2)N2CC/C=C\C[C@@H](C2=O)N(C)C(=O)CN(C)C1=O [PP1849],–,37.1 nM,–,0.38 nM,–,–,A (a compound having 10 or more and less than 20 is denoted as A),A (a compound having 10 or more and less than 20 is denoted as A),–,–
CC[C@H](C)[C@@H]1NC(=O)[C@H](C2CC2)N(C)C(=O)C[C@@H](C(=O)N(C)CC)N(C)C(=O)[C@H](C2CCCC2)N(C)C(=O)C2(CC(C)(C)C2)NC(=O)[C@@H]2C[C@H](C)CN2C(=O)[C@H](CCc2cc(F)c(C(F)(F)F)c(F)c2)NC(=O)CN(C)C(=O)[C@H](Cc2ccc(C(F)(F)F)cc2)N2CC/C=C\C[C@@H](C2=O)N(C)C(=O)CN(C)C1=O [PP1980],–,30.1 nM,–,0.36 nM,–,–,–,–,A (a compound having 10 or more and less than 20 is denoted as A),B (a compound having 3 or more and less than 10 is denoted as B)

# These reach a lower IC50 [3]. Values come first.
Kd ([1]; Single Cycle Kinetics),IC50 [3],Kd ([1]; 1:1 binding model),"Kd [1, 6]",SMILES,"NRAS /KRAS [2, 4]",HRAS /KRAS (HRAS wild-type protein; [5]),NRAS /KRAS ([2]; ratio of KD value for GDP-bound NRAS wild-type protein to KD value for KRAS (SPR)),HRAS /KRAS (HRAS wild-type protein; ratio of KD value for HRAS wild-type protein to KD value for KRAS (SPR)),NRAS /KRAS ([2]; ratio of the KD value with respect to GDP-bound NRAS wild-type protein to the KD value with respect to KRAS),HRAS /KRAS (HRAS wild-type protein; ratio of the KD value with respect to HRAS wild-type protein to the KD value with respect to KRAS)
0.12 nM,13.6 nM,–,–,CC[C@H](C)[C@@H]1NC(=O)[C@H](CC(C)C)N(C)C(=O)C[C@@H](C(=O)N2CCOCC2)N(C)C(=O)[C@H](C2CCCC2)N(C)C(=O)C2(CCC2)NC(=O)[C@@H]2CC(F)(F)CN2C(=O)[C@H](CCc2ccc(C(F)(F)F)c(Cl)c2)NC(=O)CN(C)C(=O)[C@H](Cc2ccc(F)cc2)N2CCCCC[C@@H](C2=O)N(C)C(=O)CN(C)C1=O [PP0969],B (a compound having 3 or more and less than 10 is denoted as B),B (a compound having 3 or more and less than 10 is denoted as B),–,–,–,–
–,4.5 nM,0.15 nM,–,CC[C@H](C)[C@@H]1NC(=O)[C@H](CC(C)C)N(C)C(=O)C[C@@H](C(=O)N2CCOCC2)N(C)C(=O)[C@H](C2CCCC2)N(C)C(=O)C(C)(C)NC(=O)[C@@H]2CCCN2C(=O)[C@H](CCc2ccc(C(F)(F)F)c(Cl)c2)NC(=O)CN(C)C(=O)[C@H](Cc2ccc(C(F)(F)F)cc2)N(CC)C(=O)CN(C)C(=O)CN(C)C1=O [PP0235] ([NMeL]I[Sar][Sar][NEtPhe(4-CF3)][Sar][hPhe(3-Cl-4-CF3)]P[Aib][NMeGly(cPent)][NMeD]-Morpholide; lactam N-11),B (a compound having 3 or more and less than 10 is denoted as B),C (A compound having a KD ratio of 0.1 or more and less than 3 is denoted as C),–,–,–,–
